Columns and labels:
solubility in water = assay type: physicochemical; settings: freeze-dried yellow powder
Description: In order to facilitate removal of the aldehyde protective group of the Schiff base and to form the salt of the liberated free base ester, the Schiff base is stirred in water overnight, centrifuged and the insoluble product dried by lyophilization. HPLC and 300 Mhz NMR indicate that the product contains some p-chlorobenzaldehyde and is usually about a 50/50 mixture of the desired methyl ester and the corresponding Schiff base. The mixture is stirred in ethyl acetate to remove the excess aldehyde. The product is then dissolved in a solvent which is inert to the materials, is miscible with water, and can be removed from an aqueous solution as an azeotrope. Tetrahydrofuran or acetonitrile fulfil these requirements. […] A solution of amphotericin B methyl ester Schiff base/free base in tetrahydrofuran is diluted with water to approximately 75% THF but maintained in solution. To this solution is added dilute hydrochloric acid until the appropriate pH is reached. This causes the hydrolysis of the Schiff base and forms the hydochloride salt of amphotericin B methyl ester. The tetrahydrofuran is then removed as an azeotrope with water to obtain an aqueous solution of the AME.HCl and some insoluble material containing part of the aldehyde. The residual aldehyde in the aqueous solution of the AME.HCl is an impurity which can not be readily removed by filtration, centrifuging, or solvent extraction. […]

[1] = at pH levels less than 4.0; cited from earlier work
pH of a 1% solution = assay type: physicochemical
Method: A mixture of amphotericin B methyl ester and its p-chlorobenzilidine derivative (1.029 g) was dissolved in 40 ml o THF/H2O (4/1) and 0.90 ml of 1.0 M acetic acid solution was added dropwise. Water (40 ml) was added and THF was removed as an azeotrope at reduced pressure and 40° C. The resulting aqueous solution was passed through a column of Amberlite® XAD-2, then freeze-dried to afford 0.654 g of the acetate salt: E^1%1 cm=1100 at 382 nm in MeOH; a 1% solution had pH 5.30.

For `COC(=O)[C@H]1[C@@H]2C[C@@H](O[C@@H]3O[C@H](C)[C@@H](O)[C@H](N)[C@@H]3O)/C=C/C=C/C=C/C=C/C=C/C=C/C=C/[C@H](C)[C@@H](O)[C@@H](C)[C@H](C)OC(=O)C[C@H](O)C[C@H](O)CC[C@@H](O)[C@H](O)C[C@H](O)C[C@](O)(C[C@@H]1O)O2.Cl` [AME.HCl, amphotericin B methyl ester hydrochloride], the solubility in water (solubility in water) was “highly soluble”.
For `COC(=O)[C@H]1[C@@H]2C[C@@H](O[C@@H]3O[C@H](C)[C@@H](O)[C@H](N)[C@@H]3O)/C=C/C=C/C=C/C=C/C=C/C=C/C=C/[C@H](C)[C@@H](O)[C@@H](C)[C@H](C)OC(=O)C[C@H](O)C[C@H](O)CC[C@@H](O)[C@H](O)C[C@H](O)C[C@](O)(C[C@@H]1O)O2` [AME, amphotericin B methyl ester], the stability [1] is listed as “very unstable”.
Work on `CC(=O)O.COC(=O)C1C(O)CC2(O)CC(O)CC(O)C(O)CCC(O)CC(O)CC(=O)OC(C)C(C)C(O)C(C)C=CC=CC=CC=CC=CC=CC=CC(OC3OC(C)C(O)C(N)C3O)CC1O2` (stereo not drawn) [Amphotericin B Methyl Ester Acetate] yielded a pH of solution (pH of a 1% solution) of 5.30.
